The record followed here is patent publication US9512144B2, “Imidazothiazole sufonamides as nematicides” (BAYER CROPSCIENCE AKTIENGESELLSCHAFT, priority 2013, dated 2016).

The subject of assay [1] is Meloidogyne incognita. Description: Meloidogyne incognita test (MELGIN): sand, salad seeds, gall formation after 14 days. It is filed as in vivo. To be noted: application rate 20 ppm, salad seedlings in sand. How it is done: Solvent: 125.0 parts by weight of acetone To produce a suitable preparation of active compound, 1 part by weight of active compound is mixed with the stated amount of solvent, and the concentrate is diluted with water to the desired concentration. Vessels are filled with sand, a solution of the active ingredient, a suspension containing eggs and larvae of the southern root-knot nematode (Meloidogyne incognita) and salad seeds. The salad seeds germinate and the seedlings grow. Galls develop in the roots. After 14 days the nematicidal activity is determined on the basis of the percentage of gall formation. 100% means that no galls were found; 0% means that the number of galls found on the roots of the treated plants was equal to that in untreated control plants.

The subject of assay [2] is Meloidogyne incognita. Description: Meloidogyne incognita test: compound solution poured into pots with soil (loamy sand), salad seeds, gall formation after 21 days. It is filed as in vivo. The following applies: salad in soil. How it is done: Solvent: 7 parts by weight of dimethylformamide Emulsifier: 2.5 parts by weight of alkylarylpolyglycolether To produce a suitable preparation of active compound, 1 part by weight of active compound is mixed with the stated amount of solvent and emulsifier and is diluted with water to the desired concentration. In the calculation of the concentration the soil volume has to be included. […] Further test concentrations are prepared by dilution with water. The compound solution is poured into pots filled with soil (loamy sand). A suspension containing eggs and larvae of the southern root-knot nematode (Meloidogyne incognita) is added, salad seeds are spread on the soil surface and covered with quartz sand. The salad seeds germinate and the seedlings grow. Galls develop on the roots. After 21 days the nematicidal activity is determined on the basis of the percentage of gall formation. 100% means no galls were found; 0% means the number of galls found on the roots of the treated plants was equal to that in untreated control plants.

Take `Cc1ccc(C)c(S(=O)(=O)NC(=O)c2cn3cc(C(F)(F)F)sc3n2)c1` [Example I-1-9]: the “nematicidal activity on the basis of the percentage of gall formation (100% = no galls)” value in assay [1] and in assay [2] (application rate 8 ppm) was 100% each time.

For the compound `O=C(NS(=O)(=O)c1ccccc1Br)c1cn2cc(C(F)(F)C(F)(F)F)sc2n1` [Example I-1-227], the “nematicidal activity on the basis of the percentage of gall formation (100% = no galls)” value in assay [1] and in assay [2] (application rate 8 ppm) was 100% in each case.

Turning to `Cc1c(C(F)(F)F)sc2nc(C(=O)NS(=O)(=O)c3cc(C(F)(F)F)ccc3Cl)cn12` [Example I-1-289], the “nematicidal activity on the basis of the percentage of gall formation (100% = no galls)” value in assay [1] stood at 100%; in assay [2] (application rate 4 ppm), 85%.

Take `Cc1ccc(C)c(S(=O)(=O)NC(=O)c2cn3cc(C(F)(F)C(F)(F)F)sc3n2)c1` [Example I-1-225]: the “nematicidal activity on the basis of the percentage of gall formation (100% = no galls)” value in assay [1] was 90%; in assay [2] (application rate 8 ppm), 80%.

With `COc1ccc(Cl)c(S(=O)(=O)NC(=O)c2cn3cc(C(F)(F)C(F)(F)F)sc3n2)c1` [Example I-1-147], the “nematicidal activity on the basis of the percentage of gall formation (100% = no galls)” value in assay [1] is listed as 100%; in assay [2] (application rate 8 ppm) it was 85%.

For `O=C(NS(=O)(=O)c1cc(Cl)ccc1Br)c1cn2cc(C(F)(F)F)sc2n1` [Example I-1-205], the figures for the “nematicidal activity on the basis of the percentage of gall formation (100% = no galls)” value in assay [1] and in assay [2] (application rate 4 ppm) were 100% and 95%, respectively.

On to `CCCOc1ccc(Cl)c(S(=O)(=O)NC(=O)c2cn3cc(C(F)(F)F)sc3n2)c1` [Example I-1-207], for which the “nematicidal activity on the basis of the percentage of gall formation (100% = no galls)” value in assay [1] was 100%; in assay [2] (application rate 4 ppm), 95%.

On to `CC(C)Oc1ccc(Cl)c(S(=O)(=O)NC(=O)c2cn3cc(C(F)(F)F)sc3n2)c1` [Example I-1-208], for which the “nematicidal activity on the basis of the percentage of gall formation (100% = no galls)” value in assay [1] came to 100%; in assay [2] (application rate 1 ppm), 90%.

With `Cc1c(C(F)(F)F)sc2nc(C(=O)NS(=O)(=O)c3ccccc3Cl)cn12` [Example I-1-154], the “nematicidal activity on the basis of the percentage of gall formation (100% = no galls)” value came to 90% in assay [1] and 99% in assay [2] (application rate 4 ppm).

Consider `CCOc1ccc(Cl)c(S(=O)(=O)NC(=O)c2cn3cc(C(F)(F)F)sc3n2)c1` [Example I-1-286], for which the “nematicidal activity on the basis of the percentage of gall formation (100% = no galls)” value in assay [1] is given as 100%; in assay [2] (application rate 1 ppm) it was 85%.

For the compound `O=C(NS(=O)(=O)c1c(F)cccc1F)c1cn2cc(C(F)(F)C(F)(F)F)sc2n1` [Example I-1-222], the entries for the “nematicidal activity on the basis of the percentage of gall formation (100% = no galls)” value in assay [1] and in assay [2] (application rate 8 ppm) were 100% and 90%, respectively.

In the case of `O=C(NS(=O)(=O)c1cc(C(F)(F)F)ccc1Br)c1cn2cc(C(F)(F)F)sc2n1` [Example I-1-5], the “nematicidal activity on the basis of the percentage of gall formation (100% = no galls)” value was found to be 100% in assay [1] and 90% in assay [2] (application rate 4 ppm).

With `Cc1c(C(F)(F)C(F)(F)F)sc2nc(C(=O)NS(=O)(=O)c3c(Cl)cccc3Cl)cn12` [Example I-1-254], the “nematicidal activity on the basis of the percentage of gall formation (100% = no galls)” value in assay [1] was determined as 100%; in assay [2] (application rate 8 ppm), 85%.

On to `COc1ccc(Cl)c(S(=O)(=O)NC(=O)c2cn3c(C)c(C(F)(F)C(F)(F)F)sc3n2)c1` [Example I-1-251], for which the “nematicidal activity on the basis of the percentage of gall formation (100% = no galls)” value is reported as 100% in assay [1] and 98% in assay [2] (application rate 8 ppm).

On to `COc1ccc(Br)c(S(=O)(=O)NC(=O)c2cn3cc(C(F)(F)F)sc3n2)c1` [Example I-1-206], for which the “nematicidal activity on the basis of the percentage of gall formation (100% = no galls)” value in assay [1] and in assay [2] (application rate 4 ppm) was 100% throughout.
